Measurements reported in ChEMBL document CHEMBL1157442, “Discovery of new binding elements in DPP-4 inhibition and their applications in novel DPP-4 inhibitor design” (Bioorg Med Chem Lett, 2008).

Columns and labels:
Dipeptidyl peptidase 8 = Dipeptidyl peptidase 8 (Homo sapiens, UniProt Q6V1X1); assay: Inhibition of DPP8
[1] = Oral bioavailability in rat at 2 mg/kg; type: ADME, organism-based; details: in vivo
[2] = Clearance in rat plasma at 1 mg/kg, iv and 2 mg/kg, po; type: ADME, organism-based
[3] = Cmax in rat 1 mg/kg, iv and 2 mg/kg, po; type: ADME, organism-based; details: in vivo
[4] = Half life in rat plasma 1 mg/kg, iv and 2 mg/kg, po; type: ADME, organism-based
Dipeptidyl peptidase 4 = Dipeptidyl peptidase 4 (Homo sapiens, UniProt P27487); assay: Inhibition of DPP4
Dipeptidyl peptidase 4, sequence (P27487 whole entry): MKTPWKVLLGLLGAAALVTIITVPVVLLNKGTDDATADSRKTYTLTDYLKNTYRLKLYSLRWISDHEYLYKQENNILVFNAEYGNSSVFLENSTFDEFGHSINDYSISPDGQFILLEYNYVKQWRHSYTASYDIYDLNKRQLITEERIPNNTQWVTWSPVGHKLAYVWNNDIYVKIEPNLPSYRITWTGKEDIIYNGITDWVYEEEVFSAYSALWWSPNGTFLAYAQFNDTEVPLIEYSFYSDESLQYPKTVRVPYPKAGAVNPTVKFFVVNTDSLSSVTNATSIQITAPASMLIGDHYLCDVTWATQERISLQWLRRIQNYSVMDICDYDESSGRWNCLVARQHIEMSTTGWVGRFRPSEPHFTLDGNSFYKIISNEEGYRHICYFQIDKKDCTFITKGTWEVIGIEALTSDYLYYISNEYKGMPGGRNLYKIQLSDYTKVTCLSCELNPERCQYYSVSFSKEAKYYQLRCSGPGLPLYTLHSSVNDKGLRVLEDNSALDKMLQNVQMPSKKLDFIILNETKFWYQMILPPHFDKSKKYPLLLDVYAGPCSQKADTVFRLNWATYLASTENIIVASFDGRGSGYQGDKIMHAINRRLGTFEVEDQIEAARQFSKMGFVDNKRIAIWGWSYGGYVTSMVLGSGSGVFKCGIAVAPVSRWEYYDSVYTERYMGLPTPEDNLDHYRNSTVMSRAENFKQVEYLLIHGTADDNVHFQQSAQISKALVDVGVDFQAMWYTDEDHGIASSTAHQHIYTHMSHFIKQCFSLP

Dipeptidyl peptidase 8, sequence (Q6V1X1 whole entry): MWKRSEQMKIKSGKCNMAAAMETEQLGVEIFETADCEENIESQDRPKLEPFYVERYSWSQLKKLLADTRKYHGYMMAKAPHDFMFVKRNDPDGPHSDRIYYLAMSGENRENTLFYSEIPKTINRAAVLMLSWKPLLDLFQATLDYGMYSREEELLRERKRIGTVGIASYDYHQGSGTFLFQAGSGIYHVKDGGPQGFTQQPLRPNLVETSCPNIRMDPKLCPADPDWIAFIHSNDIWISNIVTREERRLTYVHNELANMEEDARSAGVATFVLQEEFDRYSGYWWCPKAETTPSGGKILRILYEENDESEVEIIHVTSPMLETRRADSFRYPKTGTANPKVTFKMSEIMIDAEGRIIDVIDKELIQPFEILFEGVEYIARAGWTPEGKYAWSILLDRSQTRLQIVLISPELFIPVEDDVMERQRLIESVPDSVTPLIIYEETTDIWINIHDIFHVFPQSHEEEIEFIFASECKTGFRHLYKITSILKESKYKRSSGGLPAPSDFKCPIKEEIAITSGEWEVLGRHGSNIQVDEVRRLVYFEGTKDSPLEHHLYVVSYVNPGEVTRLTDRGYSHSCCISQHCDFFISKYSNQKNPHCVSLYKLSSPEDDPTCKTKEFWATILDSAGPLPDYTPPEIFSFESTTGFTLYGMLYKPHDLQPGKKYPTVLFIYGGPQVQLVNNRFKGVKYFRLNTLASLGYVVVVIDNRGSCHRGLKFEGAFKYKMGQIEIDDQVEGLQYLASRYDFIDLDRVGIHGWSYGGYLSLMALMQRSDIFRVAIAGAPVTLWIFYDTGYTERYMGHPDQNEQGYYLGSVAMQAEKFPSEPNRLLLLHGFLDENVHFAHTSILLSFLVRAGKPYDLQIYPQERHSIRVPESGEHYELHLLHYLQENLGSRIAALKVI

Which IC50 (Dipeptidyl peptidase 8) does the source give for C[C@H](c1nc(-c2ccc(OC(F)(F)F)cc2)no1)[C@H](N)C(=O)N1CCCC1 here?
Its IC50 is over 100 µM.

For NC(=O)c1cccc(-c2ccc([C@H](N)Cc3cc(F)ccc3F)cc2)c1, which bioavailability [1] is on record?
The bioavailability was 130%.

What about the clearance [2] of the same compound?
Its clearance is 13 mL/min/kg.

What about the Cmax [3] of the same compound?
The Cmax was 2100 nM.

What about the half-life [4] of the same compound?
The half-life was 3.8 h.

And the IC50 (Dipeptidyl peptidase 8)?
Its IC50 is over 100 µM.

For C[C@@H]1C(=O)NCCCN1C(=O)C[C@H](N)Cc1ccccc1F, which IC50 (Dipeptidyl peptidase 4) is on record?
The IC50 was 0.04 µM.

Which results are given for N[C@H](Cc1cc(F)ccc1F)c1ccc(-c2ccncc2Cl)cc1?
IC50 (Dipeptidyl peptidase 4): 0.107 µM; IC50 (Dipeptidyl peptidase 8): > 100 µM

With C[C@H](c1nc(-c2ccc(Cl)cc2Cl)no1)[C@H](N)C(=O)N1CC[C@H](F)C1 as the compound, how does the IC50 (Dipeptidyl peptidase 4) read?
The IC50 was 0.615 µM.

What about the IC50 (Dipeptidyl peptidase 8) of the same compound?
The IC50 was over 100 µM.

With C[C@H](c1nc(-c2ccc(S(C)(=O)=O)cc2Cl)no1)[C@H](N)C(=O)N1CC[C@H](F)C1 as the compound, how does the IC50 (Dipeptidyl peptidase 8) read?
The IC50 was over 100 µM.

Which IC50 (Dipeptidyl peptidase 8) does the source give for N[C@H](Cc1cc(F)ccc1F)c1ccc(Br)cc1 here?
Its IC50 is over 100 µM.

With Cc1noc(C(=O)C[C@H](N)Cc2cc(F)ccc2F)n1 as the compound, how does the IC50 (Dipeptidyl peptidase 8) read?
Its IC50 is over 100 µM.

With C[C@@H](c1ccc(-c2ccncc2Cl)cc1)[C@H](N)C(=O)N1CC[C@H](F)C1 as the compound, how does the IC50 (Dipeptidyl peptidase 4) read?
The IC50 was 0.071 µM.

What about the IC50 (Dipeptidyl peptidase 8) of the same compound?
Its IC50 is over 100 µM.

With C[C@@H](c1nc(-c2ccc(Cl)cc2Cl)no1)[C@H](N)Cc1cc(F)c(F)cc1F as the compound, how does the IC50 (Dipeptidyl peptidase 4) read?
The IC50 was 0.6 µM.

And the IC50 (Dipeptidyl peptidase 8)?
The IC50 was over 100 µM.

Which IC50 (Dipeptidyl peptidase 4) does the source give for C[C@@H](c1nc(-c2ccc(OC(F)(F)F)cc2)no1)[C@H](N)Cc1cc(F)ccc1F here?
The IC50 was 4.4 µM.

And the IC50 (Dipeptidyl peptidase 8)?
The IC50 was over 100 µM.

For C[C@@H](c1nc(-c2ccc(S(C)(=O)=O)cc2Cl)no1)[C@H](N)Cc1cc(F)c(F)cc1F, which IC50 (Dipeptidyl peptidase 4) is on record?
Its IC50 is 0.046 µM.

And the IC50 (Dipeptidyl peptidase 8)?
Its IC50 is over 100 µM.

With N[C@@H](CC(=O)N1CCC[C@H]1CO)C(=O)N1CC[C@H](F)C1 as the compound, how does the IC50 (Dipeptidyl peptidase 4) read?
Its IC50 is 9.2 µM.
